In US20240225053A9 (priority 2021, published 2024):
Where “and” joins values, the source holds several entries; their conditions need not be identical. Identical values can stand only once. Entries after “also recorded” stand apart in the source; their conditions may differ. Like-named read-outs stand apart in the source and are kept apart here.

How the values were obtained:
[1] = tested on: Clostridium perfringens ATCC10873; type: cell-based; set-up: key to Settling: Good: Settling effect observed; Poor: No settling effect observed; conditions: for Settling: 37° C., 8 hours; for Concentration required for settling / at which settling was confirmed: optical density about 2.0 at 660 nm
[2] = tested on: Clostridium perfringens ATCC10873; type: cell-based; conditions: for Shape: 8 hours; for Agglomeration (text) / Shape of the bacterial cells: Example 2 strains
[3] = tested on: mixed bacterial cells of Clostridium perfringens ATCC10873, Salmonella enterica IAM1648 and E. coli MG1655; type: cell-based; conditions: 500 mM in combination with Arabic Gum 1%; OD660 about 2.0, 37° C.
[4] = tested on: Clostridium perfringens ATCC10873; type: cell-based; set-up: key: Good: Agglomeration effect observed; Poor: No agglomeration effect observed
[5] = tested on: Clostridium perfringens SM101 (CPE toxin producer); type: cell-based; set-up: key to Agglomeration: Good: Agglomeration effect observed; Poor: No agglomeration effect observed; conditions: 500 mM
[6] = tested on: Clostridium perfringens CNEOP004 (netB toxin producer); type: cell-based; set-up: key to Agglomeration: Good: Agglomeration effect observed; Poor: No agglomeration effect observed; conditions: 500 mM
[7] = tested on: Clostridium perfringens ATCC10873; type: cell-based; set-up: unit not given here; conditions: bacterial cells, 8 hours, diluted 100 times
[8] = tested on: Clostridium perfringens SM101; type: cell-based; set-up: unit not given here; conditions: bacterial cells, 500 mM, 8 hours, diluted 100 times
[9] = tested on: Clostridium perfringens CNEOP004; type: cell-based; set-up: unit not given here; conditions: bacterial cells, 500 mM, 8 hours, diluted 100 times
[10] = tested on: Lactobacillus casei ATCC393; type: cell-based; set-up: key to Agglomeration: Good: Those in which agglomeration observed under upright microscope; Poor: Those in which no agglomeration observed under upright microscope
[11] = tested on: Bifidobacterium animalis JCM1190; type: cell-based; set-up: key to Agglomeration: Good: Those in which agglomeration observed under upright microscope; Poor: Those in which no agglomeration observed under upright microscope
[12] = tested on: Salmonella enterica IAM1648; type: cell-based; set-up: key: Good: Those in which agglomeration observed under upright microscope; Poor: Those in which no agglomeration observed under upright microscope
[13] = tested on: Escherichia coli MG1655; type: cell-based; set-up: key: Good: Those in which agglomeration observed under upright microscope; Poor: Those in which no agglomeration observed under upright microscope
[14] = tested on: Clostridium perfringens ATCC10873; type: cell-based; set-up: key: Good: Those in which agglomeration observed under upright microscope; Poor: Those in which no agglomeration observed under upright microscope; conditions: Table 4, 500 mM
[15] = tested on: Clostridium perfringens strain SM101; type: cell-based; conditions: KCl 500 mM
[16] = tested on: Clostridium perfringens; type: in vivo, chickens (broilers); conditions: for Dead birds Total: 500 chickens
[17] = set-up: species or system chickens (broilers, UK Chunky); conditions: in vivo
[18] = Table 2-1, 500 mM, w/AG 1%, 8 hours
[19] = Table 2-1, 500 mM, without AG, 8 hours
[20] = Table 2-1, 100 mM, without AG, 8 hours
[21] = Day 0-14, BMD 55 ppm, Coated-KCl 47 ppm in feed
[22] = Day 15-28, BMD 55 ppm, Coated-KCl 47 ppm in feed
[23] = Day 29-42, BMD 55 ppm, Coated-KCl 47 ppm in feed

[Cl-].[Na+] [NaCl]
Settling ([1]; 20 mM, without AG): Poor | Settling ([1]; 100 mM, without AG): Poor | Settling ([1]; 500 mM, w/AG 1%): Good | Settling ([1]; 500 mM, without AG): Good | Shape ([2]; 500 mM, w/AG 1%): Spheroidal | Shape ([2]; 500 mM, without AG): Spheroidal | Agglomeration (text) ([2]; absence of AG): did not agglomerate | Shape of the bacterial cells ([2]; absence of AG): changed from bacilli to cocci | Agglomeration (text) ([2]; coexistence with AG): agglomerated in the state of cocci | Agglomeration of the three types of enteric bad bacteria [3]: can quickly agglomerate | Agglomeration [4, 18]: Good | Agglomeration [4, 19]: Poor

[Cl-].[Cl-].[Mg+2] [MgCl2]
Settling effect ([1]; 500 mM, absence of AG): did not exert a settling effect | Settling effect ([1]; 500 mM, in combination with AG): exerted a settling effect | Settling ([1]; 500 mM, w/AG 1%): Good | Settling ([1]; 500 mM, without AG): Poor | Concentration required for settling / at which settling was confirmed ([1]; absence of AG): over 500 mM | Shape ([2]; 500 mM, w/AG 1%): Rod-shaped | Shape ([2]; 500 mM, without AG): Rod-shaped | Agglomeration (text) ([2]; absence of AG): no agglomeration was observed | Shape of the bacterial cells ([2]; absence of AG): shape as bacilli remained unchanged | Agglomeration (text) ([2]; coexistence with AG): agglomeration of Clostridium perfringens was observed | Shape ([5]; w/AG 1%, 8 hours): Rod-shaped | Shape ([5]; without AG, 8 hours): Rod-shaped | Agglomeration ([5]; Table 2-2, w/AG 1%, 8 hours): Good | Agglomeration ([5]; Table 2-2, without AG, 8 hours): Poor | Agglomeration ([5]; Table 3-2, w/AG 1%): Good | Agglomeration ([5]; Table 3-2, without AG): Good | Shape ([6]; w/AG 1%, 8 hours): Rod-shaped | Shape ([6]; without AG, 8 hours): Rod-shaped | Agglomeration ([6]; Table 2-3, w/AG 1%, 8 hours): Good | Agglomeration ([6]; Table 2-3, without AG, 8 hours): Poor | Agglomeration ([6]; Table 3-3, w/AG 1%): Good | Agglomeration ([6]; Table 3-3, without AG): Good | Zeta potential ([7]; 500 mM, W/AG 1%): −12.9 | Zeta potential ([7]; 500 mM, without AG): −3.2 | Zeta potential ([8]; w/AG 1%): −10.2 | Zeta potential ([8]; without AG): −12.1 | Zeta potential ([9]; w/AG 1%): −11.8 | Zeta potential ([9]; without AG): −12 | Agglomeration [10]: Poor and Good | Agglomeration [11]: Poor | Agglomeration [12]: Poor and Good | Agglomeration [13]: Poor and Good | Agglomeration [4, 18]: Good | Agglomeration [4, 19]: Poor | Agglomeration ([4]; Table 3-1, 500 mM, W/AG 1%): Good | Agglomeration ([4]; Table 3-1, 500 mM, without AG): Poor | Agglomeration ([14]; W/AG 1%): Good | Agglomeration ([14]; without AG): Poor

[Cl-].[K+] [KCl]
Settling ([1]; 100 mM, without AG): Good | Settling ([1]; 500 mM, w/AG 1%): Good | Settling ([1]; 500 mM, without AG): Good | Concentration required for settling / at which settling was confirmed ([1]; absence of AG): ≥ 100 mM | Shape ([2]; 100 mM, without AG): Spheroidal | Shape ([2]; 500 mM, w/AG 1%): Spheroidal | Shape ([2]; 500 mM, without AG): Spheroidal | Agglomeration (text) ([2]; absence of AG): did not agglomerate | Shape of the bacterial cells ([2]; absence of AG): changed from bacilli to cocci | Agglomeration (text) ([2]; coexistence with AG): agglomerated in the state of cocci | Shape ([5]; w/AG 1%, 8 hours): Spheroidal | Shape ([5]; without AG, 8 hours): Spheroidal | Agglomeration ([5]; Table 2-2, w/AG 1%, 8 hours): Good | Agglomeration ([5]; Table 2-2, without AG, 8 hours): Poor | Agglomeration ([5]; Table 3-2, w/AG 1%): Good | Agglomeration ([5]; Table 3-2, without AG): Poor | Shape ([6]; w/AG 1%, 8 hours): Spheroidal | Shape ([6]; without AG, 8 hours): Spheroidal | Agglomeration ([6]; Table 2-3, w/AG 1%, 8 hours): Good | Agglomeration ([6]; Table 2-3, without AG, 8 hours): Poor | Agglomeration ([6]; Table 3-3, w/AG 1%): Good | Agglomeration ([6]; Table 3-3, without AG): Poor | Zeta potential ([7]; 500 mM, W/AG 1%): −10.2 | Zeta potential ([7]; 500 mM, without AG): −29.0 | Zeta potential ([8]; w/AG 1%): −26.5 | Zeta potential ([8]; without AG): −30.2 | Zeta potential ([9]; w/AG 1%): −23 | Zeta potential ([9]; without AG): −25 | Agglomeration [10]: Poor | Agglomeration effect [10]: not exerted | Agglomeration [11]: Poor | Agglomeration effect [11]: not exerted | Agglomeration [12]: Poor and Good | Agglomeration [13]: Poor and Good | Agglomeration of the three types of enteric bad bacteria [3]: can quickly agglomerate | Nature of cocci (vegetative cells or spores) under phase-contrast microscope [15]: not spores | Agglomeration [4, 20]: Poor | Agglomeration [4, 18]: Good | Agglomeration [4, 19]: Poor | Agglomeration ([4]; Table 3-1, 500 mM, W/AG 1%): Good | Agglomeration ([4]; Table 3-1, 500 mM, without AG): Poor | Agglomeration ([14]; W/AG 1%): Good | Agglomeration ([14]; without AG): Poor

bacitracin methylene disalicylate [BMD]
Dead birds Total [16, 21]: 19 | Dead birds NE Caused [16, 21]: 0 | Dead birds Total [16, 22]: 10 | Dead birds NE Caused [16, 22]: 4 | Dead birds Total [16, 23]: 6 | Dead birds NE Caused [16, 23]: 0 | NE Caused Mortality ([16]; average, 6 weeks, BMD 55 ppm, Coated-KCl 47 ppm in feed): 0.80 | NE Lesion Score ([16]; day 17, three birds per pen, 0 = none to 3 = severe, average, BMD 55 ppm, Coated-KCl 47 ppm): 0.30 | Mortality reduced to, as compared with Challenge Control ([16]; text b129): 13.2% | BWG %: versus Control (Non treatment) [17]: 106.0% and 103.9% and 103.5% | Weight gain as compared with Control (Non treatment), in words [17]: weight gain was improved

[Ca+2].[Cl-].[Cl-] [CaCl2]
Settling ([1]; 20 mM, without AG): Poor | Settling ([1]; 100 mM, without AG): Poor | Shape ([2]; 20 mM, without AG): Rod-shaped | Shape ([2]; 100 mM, without AG): Rod-shaped | Concentration at which bacterial cells agglomerated ([2]; absence of AG): ≥ 20 mM | Agglomeration (text) ([2]; absence of AG): agglomerated in the state of bacilli | Shape ([5]; without AG, 8 hours): Rod-shaped | Agglomeration ([5]; Table 2-2, without AG, 8 hours): Good | Agglomeration ([5]; Table 3-2, without AG): Good | Shape ([6]; without AG, 8 hours): Rod-shaped | Agglomeration ([6]; Table 2-3, without AG, 8 hours): Good | Agglomeration ([6]; Table 3-3, without AG): Good | Zeta potential ([7]; 20 mM, without AG): −4.4 | Zeta potential ([7]; 100 mM, without AG): −4.0 | Zeta potential ([8]; without AG): −14.3 | Zeta potential ([9]; without AG): −12.3 | Agglomeration [10]: Poor | Agglomeration [11]: Poor | Agglomeration [12]: Poor | Agglomeration [13]: Poor | Agglomeration ([4]; Table 2-1, 20 mM, without AG, 8 hours): Good | Agglomeration [4, 20]: Good | Agglomeration ([4]; Table 3-1, 20 mM, without AG): Good | Agglomeration ([4]; Table 3-1, 100 mM, without AG): Good | Agglomeration ([14]; without AG): Good

[Cl][Fe][Cl] [FeCl2]
Settling ([1]; 10 mM, without AG): Good | Settling ([1]; 50 mM, without AG): Good | Concentration required for settling / at which settling was confirmed ([1]; absence of AG): ≥ 10 mM | Shape ([2]; 10 mM, without AG): Rod-shaped | Shape ([2]; 50 mM, without AG): Rod-shaped | Concentration at which bacterial cells agglomerated ([2]; absence of AG): ≥ 10 mM | Agglomeration (text) ([2]; absence of AG): showed an agglomeration effect; also recorded: agglomerated in the state of bacilli | Shape ([5]; without AG, 8 hours): Rod-shaped | Agglomeration ([5]; Table 2-2, without AG, 8 hours): Good | Agglomeration ([5]; Table 3-2, without AG): Good | Shape ([6]; without AG, 8 hours): Rod-shaped | Agglomeration ([6]; Table 2-3, without AG, 8 hours): Good | Agglomeration ([6]; Table 3-3, without AG): Good | Zeta potential ([7]; 10 mM, without AG): 0.8 | Zeta potential ([7]; 50 mM, without AG): 20.7 | Zeta potential ([8]; without AG): 4.1 | Zeta potential ([9]; without AG): 21.5 | Agglomeration [10]: Good | Agglomeration effect [10]: showed an agglomeration effect | Agglomeration [11]: Good | Agglomeration effect [11]: showed an agglomeration effect | Agglomeration [12]: Poor | Agglomeration [13]: Poor | Agglomeration ([4]; Table 2-1, 10 mM, without AG, 8 hours): Good | Agglomeration ([4]; Table 2-1, 50 mM, without AG, 8 hours): Good | Agglomeration ([4]; Table 3-1, 10 mM, without AG): Good | Agglomeration ([4]; Table 3-1, 50 mM, without AG): Good | Agglomeration ([14]; without AG): Good
